Patent US7534762B2, “Polypeptides having antimicrobial activity and polynucleotides encoding same” (Novozymes A/S, priority 2005, dated 2009)

Experiments:
Assay in all cases: Radial diffusion assay
Format in all cases: cell-based
[1] = test system: Enterococcus saccharolyticus (ATCC 43076); conditions: 10 units = 1 mm diameter clear zone around the 3 mm sample well
Protocol: (§1) The supernatants described above in Example 4 were analyzed in a radial diffusion assay following a previously published protocol for detection of antimicrobial activity (Lehrer et al., (1991) Ultra sensitive assays for endogenous antimicrobial polypeptides J Immunol Methods 137: 167-173). Target bacteria (10^6 colony forming units (CFU)) were added to 10 ml of underlay agarose (1% low electro-endosmosis agarose, 0.03% Trypticase soy broth, 10 mM sodium phosphate, pH 7.4, 37 degrees Celsius). Suspension was solidified on an INTEGRID Petri Dish (Becton Dickinson Labware, NJ). A 3 mm Gel Puncher was used to make holes in the underlay agarose (Amersham Pharmacia Biotech, Sweden). Samples were added to the holes and incubated at 37 degrees Celsius, 3 hours. An overlay was poured on top and the plate was incubated overnight (LB media, 7.5% Agar). Antimicrobial activity was seen as bacterial clearing zones around the wells. Living cells was counterstained by adding 10 ml, 0.2 mM MTT (3-(4,5-Dimethylthiazol-2-yl)-2,5-diphenyltetrazolium bromide Thiazolyl blue). All standard protocols have been described elsewhere (Sambrook, Fritsch, and Maniatis, 1989). An electronic picture is taken. The bacterial growth inhibition is seen as clearing zones, which are measured to the nearest 0.1 mm and subtracted the diameter of the hole. The results are shown as zones of inhibition of native samples (Table 3) and concentrated samples (Table 4) against a range of test strains: • A: Staphylococcus simulans (ATCC 11631) • B: Staphylococcus carnosus (ATCC 51365) • C: Streptococcus hyointestinalis (ATCC 49169) • D: Bacillus subtilis (ATCC 23857) • E: Enterococcus saccharolyticus (ATCC 43076) • F: Escherichia coli (ATCC 10536) • G: Acinetobacter anitratus (ATCC 17903) • H: Erwinia chrysanthemi (ATCC 11663) • J: Pseudomonas boreopolis (ATCC 15452)
(§2) Concentration of samples was performed by precipitation of 45 ml culture supernatant with 2.5 ml 100% TCA and resuspension of the pelleted precipitate in 450 μl resuspension buffer (100 mM Tris pH 8, 100 mM NaCl).

[2] = test system: Bacillus subtilis (ATCC 23857); conditions: 10 units = 1 mm diameter clear zone around the 3 mm sample well
Protocol: as §1, §2

[3] = test system: Streptococcus hyointestinalis (ATCC 49169); conditions: 10 units = 1 mm diameter clear zone around the 3 mm sample well
Protocol: as §1, §2

[4] = test system: Staphylococcus carnosus (ATCC 51365); conditions: 10 units = 1 mm diameter clear zone around the 3 mm sample well
Protocol: as §1, §2

[5] = test system: Staphylococcus simulans (ATCC 11631); conditions: TCA precipitated culture supernatant, 100 x concentrated; 10 units = 1 mm diameter clear zone around the 3 mm sample well
Protocol: as §1, §2

[6] = test system: Erwinia chrysanthemi (ATCC 11663); conditions: TCA precipitated culture supernatant, 100 x concentrated; 10 units = 1 mm diameter clear zone around the 3 mm sample well
Protocol: as §1, §2

[7] = test system: Pseudomonas boreopolis (ATCC 15452); conditions: TCA precipitated culture supernatant, 100 x concentrated; 10 units = 1 mm diameter clear zone around the 3 mm sample well
Protocol: as §1, §2

[8] = test system: Acinetobacter anitratus (ATCC 17903); conditions: TCA precipitated culture supernatant, 100 x concentrated; 10 units = 1 mm diameter clear zone around the 3 mm sample well
Protocol: as §1, §2

[9] = test system: Escherichia coli (ATCC 10536); conditions: TCA precipitated culture supernatant, 100 x concentrated; 10 units = 1 mm diameter clear zone around the 3 mm sample well
Protocol: as §1, §2

[10] = native culture supernatant of recombinant A. oryzae clone
[11] = TCA precipitated culture supernatant, 100 x concentrated

Substance	zone of inhibition, test strain E [1, 10] [units]	zone of inhibition, test strain D [2, 10] [units]	zone of inhibition, test strain C [3, 10] [units]	zone of inhibition, test strain B [4, 11] [units]	zone of inhibition, test strain A [5] [units]	zone of inhibition, test strain E [1, 11] [units]	zone of inhibition, test strain H [6] [units]	zone of inhibition, test strain D [2, 11] [units]	zone of inhibition, test strain J [7] [units]	zone of inhibition, test strain G [8] [units]	zone of inhibition, test strain C [3, 11] [units]	zone of inhibition, test strain F [9] [units]	zone of inhibition, test strain B [4, 10] [units]
Marinasin 6: Arenicola marina antimicrobial polypeptide, amino acids 1 to 44 of SEQ ID NO: 26, expressed in Aspergillus oryzae (MTTLLLMFGVAIVVLATVAAVPLQDDDVLDPSGLVEGETRGRSC; listed as Arenicola marina)	40	39	45										
Marinasin 5: Arenicola marina antimicrobial polypeptide, amino acids 1 to 49 of SEQ ID NO: 24, expressed in Aspergillus oryzae (MKFLLPLMVVMAFAAVAMATADTEPVEREEGVFIMLPFVEDDMLEKPIL; listed as Arenicola marina)				13	22	23	26	25	22	26	24	19	
Marinasin 1B: Arenicola marina antimicrobial polypeptide, amino acids 1 to 49 of SEQ ID NO: 8, expressed in Aspergillus oryzae (MKFFLPIMIALAFAAVAMATADTEPVEPEEELSIMLPFVEDDLLEKPIP; listed as Arenicola marina)	9	10	10	25	22	30	25	28	28	26	22	25	21
Marinasin 4: Arenicola marina antimicrobial polypeptide, amino acids 1 to 45 of SEQ ID NO: 22, expressed in Aspergillus oryzae (MKPIILLMLLVAVVVMATVTAEPLDEESDVEIVSQPEQRIPCWTP; listed as Arenicola marina)	43	32	54	81	14	68	0	32	0	6	59	0	60
Marinasin 2A: Arenicola marina antimicrobial polypeptide, amino acids 1 to 46 of SEQ ID NO: 12, expressed in Aspergillus oryzae (MNQITLLMLLVAVAVMATVTGQSLDDESDVENVSQPEQRGWCWQWT; listed as Arenicola marina)	14	16	12	35	34	41	40	38	39	39	35	25	26
